Measurements published in patent US20260125375A1 (Pfizer Inc., priority 2022, published 2026).

What was measured:
[1] = molecular target: T1, WT CBL-B (36-427) (Homo sapiens, UniProt Q13191); assay: Surface Plasmon Resonance (SPR) assay, binding affinity and kinetics, CBL-B; details: SPR at 10° C., biotinylated WT CBL-B (36-427) on streptavidin chip; geometric mean; read-out: CBL-B SPR Kd (nM) GMean
T1 construct: N-terminal biotinylated WT CBL-B (36-427) and C-CBL (46-435) were captured on a streptavidin (SA) coated sensor chip
Method in brief: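 Biotinylated WT CBL-B (36-427) or C-CBL (46-435) captured on streptavidin chip (~5000–6000 RU); binding at 10° C in HEPES buffer pH 7.2 with 2% DMSO. Multi-cycle: 2-fold, 10-point series from 10 or 100 μM, 90 s association. Single-cycle: 3-fold, 6-point, 0.001–1 μM, 120 s association, >5400 s dissociation.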

[2] = molecular target: T2, C-CBL (residues 46-435) (Homo sapiens, UniProt P22681); assay: Ligand Displacement Assay (LDA), HTRF competitive binding against BODIPY-labeled fluorescent tracer, C-CBL; details: geometric mean of the number of tests, read-out: C-CBL Ki (nM) GMean
T2 construct: Purified CBL-B (residues 36-427) and C-CBL (residues 46-435) proteins from baculovirus-infected insect cells; made in house; host or cells: baculovirus-infected insect cells
T2 sequence (P22681 46-435): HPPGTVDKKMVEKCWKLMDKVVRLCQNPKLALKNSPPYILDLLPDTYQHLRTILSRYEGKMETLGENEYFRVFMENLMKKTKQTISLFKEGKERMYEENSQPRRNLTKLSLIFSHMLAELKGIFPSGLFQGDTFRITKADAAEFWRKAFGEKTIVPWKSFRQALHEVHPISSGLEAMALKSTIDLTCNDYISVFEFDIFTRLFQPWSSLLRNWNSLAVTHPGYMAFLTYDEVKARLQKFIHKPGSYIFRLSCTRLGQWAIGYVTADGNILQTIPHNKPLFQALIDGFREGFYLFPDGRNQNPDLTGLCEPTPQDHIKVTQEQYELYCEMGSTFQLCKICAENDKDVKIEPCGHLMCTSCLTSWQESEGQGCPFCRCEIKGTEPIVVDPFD
Method in brief: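 Ki values, given as geometric means of repeated tests, come from TR-FRET displacement of a BODIPY-labelled tracer from terbium-streptavidin-bound, AviTag-biotinylated protein made in baculovirus-infected insect cells. Compounds ran as three-fold dilutions in duplicate, […], 2% DMSO.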

| SMILES | Kd [1] [nM] | Ki [2] [nM] |
| --- | --- | --- |
| C[C@H](NC1CCC1)c1nc(C(F)(F)F)cc2c(-c3cccc(C4(Cc5nncn5C)COC4)c3)n[nH]c12 [Example F1, N-{(1S)-1-[3-(3-{3-[(4-methyl-4H-1,2,4-triazol-3-yl)methyl]oxetan-3-yl}phenyl)-5-(trifluoromethyl)-1H-pyrazolo[3,4-c]pyridin-7-yl]ethyl}cyclobutanamine] | 0.7 | 7.3 |
| CC(C)NC(C)c1nc(C(F)(F)F)cc2c(-c3cccc([C@H](c4nncn4C)C4CCC4)c3)n[nH]c12 (single isomer, unassigned) [Example C35] | 2.8 | 29.1 |
| C[C@H](O)CN[C@@H](C)c1nc(C(F)(F)F)cc2c(-c3cccc([C@H](c4nncn4C)C4CCC4)c3)n[nH]c12 (single isomer, unassigned) [Example D19] | 1.6 | 12.4 |
| C[C@H]1CN([C@@H](C)c2nc(C(F)(F)F)cc3c(-c4cccc(C5(Cc6nncn6C)COC5)c4)n[nH]c23)CCO1 (single isomer, unassigned) [Example D11] | 4.2 | 27.2 |
| C[C@H](N[C@H]1CCC(F)(F)C1)c1nc(C(F)(F)F)cc2c(-c3cccc(C4(Cc5nncn5C)COC4)c3)n[nH]c12 (single isomer, unassigned) [Example C12] | 0.8 | 1.3 |
| C[C@H](c1nc(C(F)(F)F)cc2c(-c3cccc(C4(Cc5nncn5C)COC4)c3)n[nH]c12)N1CC[C@@H](F)C1 (single isomer, unassigned) [Example D10] | 2.8 | 25 |
| C[C@H](c1nc(C(F)(F)F)cc2c(-c3cccc(C4(Cc5nncn5C)COC4)c3)n[nH]c12)N1CCO[C@@H](C)C1 (single isomer, unassigned) [Example D12] | 6.6 | 52.9 |
| C[C@H](N[C@@H]1CC[C@@H]1O)c1nc(C(F)(F)F)cc2c(-c3cccc([C@H](c4nncn4C)C4CCC4)c3)n[nH]c12 (single isomer, unassigned) [Example D28] | 0.4 | 0.6 |
| C[C@@H](c1nc(C(F)(F)F)cc2c(-c3cccc(C4(Cc5nncn5C)COC4)c3)n[nH]c12)N1C[C@H](F)[C@@H](F)C1 (single isomer, unassigned) [Example D7] | 2.3 | 28.1 |
| C[C@H](N)c1nc(C(F)(F)F)cc2c(-c3cccc([C@H](c4nncn4C)C4CCC4)c3)n[nH]c12 [Example K12, (1S)-1-[3-{3-[(R)-cyclobutyl(4-methyl-4H-1,2,4-triazol-3-yl)methyl]phenyl}-5-(trifluoromethyl)-1H-pyrazolo[3,4-c]pyridin-7-yl]ethan-1-amine] | 4.2 | 136 |
| C[C@@H](N[C@@H]1CCC[C@@H]1O)c1nc(C(F)(F)F)cc2c(-c3cccc([C@H](c4nncn4C)C4CCC4)c3)n[nH]c12 (single isomer, unassigned) [Example D16] | 3.6 | 24.5 |
| C[C@H](N[C@H]1CCOC1)c1nc(C(F)(F)F)cc2c(-c3cccc([C@H](c4nncn4C)C4CCC4)c3)n[nH]c12 (single isomer, unassigned) [Example C2] | 2.5 | 55.6 |
| Cn1cnnc1CC1(c2cccc(-c3n[nH]c4c(CN[C@H]5CCC(F)(F)C5)nc(C(F)(F)F)cc34)c2)COC1 [Example C38, (1S)-3,3-difluoro-N-{[3-(3-{3-[(4-methyl-4H-1,2,4-triazol-3-yl)methyl]oxetan-3-yl}phenyl)-5-(trifluoromethyl)-1H-pyrazolo[3,4-c]pyridin-7-yl]methyl}cyclopentan-1-amine] | 7.5 | 32.9 |
| C[C@H](NC1CC(F)(F)C1)c1nc(C(F)(F)F)cc2c(-c3cccc([C@H](c4nncn4C)C4CCC4)c3)n[nH]c12 (single isomer, unassigned) [Example D90] | 6.5 | 147 |
| C[C@H]1CCCN(Cc2nc(C(F)(F)F)cc3c(-c4cccc(C5(Cc6nncn6C)COC5)c4)n[nH]c23)C1 [Example C30, 7-{[(3S)-3-methylpiperidin-1-yl]methyl}-3-(3-{3-[(4-methyl-4H-1,2,4-triazol-3-yl)methyl]oxetan-3-yl}phenyl)-5-(trifluoromethyl)-1H-pyrazolo[3,4-c]pyridine] | 3 | 23.4 |
| CC(NC1CCCC1)c1nc(C(F)(F)F)cc2c(-c3cccc([C@H](c4nncn4C)C4CCC4)c3)n[nH]c12 (stereo partly drawn) [Example C14, N-{(1ξ)-1-[3-{3-[(R)-cyclobutyl(4-methyl-4H-1,2,4-triazol-3-yl)methyl]phenyl}-5-(trifluoromethyl)-1H-pyrazolo[3,4-c]cyclopen-7-yl]ethyl}cyclopentanamine] | 1.4 | 2.3 |
| CC1CN(Cc2nc(C(F)(F)F)cc3c(-c4cccc(C5(Cc6nncn6C)COC5)c4)n[nH]c23)CCC1(F)F (single isomer, unassigned) [Example C32, 7-{[(3ξ)-4,4-difluoro-3-methylpiperidin-1-yl]methyl}-3-(3-{3-[(4-methyl-4H-1,2,4-triazol-3-yl)methyl]oxetan-3-yl}phenyl)-5-(trifluoromethyl)-1H-pyrazolo[3,4-c]pyridine] | 0.8 | 55.6 |
| CCNC(C)c1nc(C(F)(F)F)cc2c(-c3cccc([C@H](c4nncn4C)C4CCC4)c3)n[nH]c12 (single isomer, unassigned) [Example C89] | 4.1 | 105 |
| C[C@H](N[C@H]1CCC(F)(F)C1)c1nc(C(F)(F)F)cc2c(-c3cccc([C@H](c4nncn4C)C4CCC4)c3)n[nH]c12 [Example C8] | 2.2 | 3 |
| C[C@@H](NC1CC(F)(F)C1)c1nc(C(F)(F)F)cc2c(-c3cccc([C@H](c4nncn4C)C4CCC4)c3)n[nH]c12 (single isomer, unassigned) [Example D91] | 6.3 | 66.8 |
| Cn1cnnc1[C@@H](c1cccc(-c2n[nH]c3c(CN[C@H]4CCC(F)(F)C4)nc(C(F)(F)F)cc23)c1)C1CCC1 (single isomer, unassigned) [Example G1] | 8 | 118 |
| CC(C)NC(C)c1nc(C(F)(F)F)cc2c(-c3cccc([C@H](c4nncn4C)C4CCC4)c3)n[nH]c12 (single isomer, unassigned) [Example C34] | 5.2 | 88.5 |
| CC(NC1CNC1)c1nc(C(F)(F)F)cc2c(-c3cccc(C4(Cc5nncn5C)COC4)c3)n[nH]c12 (single isomer, unassigned) [Example C28, N-{(1ξ)-1-[3-(3-{3-[(4-methyl-4H-1,2,4-triazol-3-yl)methyl]oxetan-3-yl}phenyl)-5-(trifluoromethyl)-1H-pyrazolo[3,4-c]pyridin-7-yl]ethyl}azetidin-3-amine] | 17.3 | 114 |
| C[C@@H](N[C@H]1CCC(F)(F)C1)c1nc(C(F)(F)F)cc2c(-c3cccc([C@H](c4nncn4C)C4CCC4)c3)n[nH]c12 [Example C9] | 3.1 | 85.2 |
| C[C@H](N[C@@H]1CCC[C@@H]1O)c1nc(C(F)(F)F)cc2c(-c3cccc([C@H](c4nncn4C)C4CCC4)c3)n[nH]c12 (single isomer, unassigned) [Example D15] | 2.5 | 1 |
| CC(c1nc(C(F)(F)F)cc2c(-c3cccc(C4(Cc5nncn5C)COC4)c3)n[nH]c12)N1CCOCC1 (single isomer, unassigned) [Example C24, 3-(3-{3-[(4-methyl-4H-1,2,4-triazol-3-yl)methyl]oxetan-3-yl}phenyl)-7-[(1ξ)-1-(morpholin-4-yl)ethyl]-5-(trifluoromethyl)-1H-pyrazolo[3,4-c]pyridine] | 16.9 | 134 |
| C[C@H](c1nc(C(F)(F)F)cc2c(-c3cccc(C4(Cc5nncn5C)COC4)c3)n[nH]c12)N1C[C@H](F)[C@@H](F)C1 (single isomer, unassigned) [Example D8] | 15.8 | 113 |
